The text below walks through data of ChEMBL document CHEMBL2429805, “Studies toward the development of new silicon-containing building blocks for the direct (18)F-labeling of peptides” (J Med Chem, 2013).

Series [1] concerns the target T1, Gastrin-releasing peptide receptor (Homo sapiens, UniProt P30550). Briefly: Displacement of [125I]-Tyr4-bombesin from GRP receptor in human PC3 cells after 1 hr by gamma-counting analysis. The format is cell-based, PC-3. In general terms: Loss of bound radioactivity is the signal in a displacement assay; it reports binding, not function.
Series [2] deals with T1, Gastrin-releasing peptide receptor. Briefly: Binding affinity to GRP receptor (unknown origin).
A short description of series [3]: Half life of the compound in water. The format is physicochemical.
Series [4] in a line: Drug metabolism in 0.9% NaCl assessed as compound hydrolysis. The format is physicochemical.
Series [5] in a line: Drug metabolism in PBS buffer assessed as compound hydrolysis. The format is physicochemical.

Structures are written as SMILES.

T1 sequence (P30550 whole entry): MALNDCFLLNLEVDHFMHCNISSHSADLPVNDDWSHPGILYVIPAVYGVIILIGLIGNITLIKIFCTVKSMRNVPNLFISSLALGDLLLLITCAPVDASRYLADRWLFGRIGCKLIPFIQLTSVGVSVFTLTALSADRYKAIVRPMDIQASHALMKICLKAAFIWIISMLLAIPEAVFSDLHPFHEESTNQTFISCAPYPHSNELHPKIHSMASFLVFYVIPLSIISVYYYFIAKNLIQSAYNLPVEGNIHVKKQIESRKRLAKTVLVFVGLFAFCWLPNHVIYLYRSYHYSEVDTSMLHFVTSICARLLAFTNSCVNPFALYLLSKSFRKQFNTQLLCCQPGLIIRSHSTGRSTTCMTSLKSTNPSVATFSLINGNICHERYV

On to `CC(C)C[C@H](NC(=O)C[C@H](O)[C@H](CC(C)C)NC(=O)[C@H](Cc1cnc[nH]1)NC(=O)CN(C)C(=O)[C@@H](NC(=O)[C@H](C)NC(=O)[C@H](Cc1c[nH]c2ccccc12)NC(=O)[C@H](CCC(N)=O)NC(=O)CCCCNC(=O)[C@H](CS(=O)(=O)O)NC(=O)[C@H](CS(=O)(=O)O)NC(=O)Cc1ccc([Si](F)(C(C)(C)C)C(C)(C)C)cc1)C(C)C)C(N)=O`, for which, in series [1], the IC50 (in general, the point on the concentration scale where inhibition reaches its midpoint) amounted to 8.3 nM. As to `CC(C)C[C@H](NC(=O)C[C@H](O)[C@H](CC(C)C)NC(=O)[C@H](Cc1cnc[nH]1)NC(=O)CN(C)C(=O)[C@@H](NC(=O)[C@H](C)NC(=O)[C@H](Cc1c[nH]c2ccccc12)NC(=O)[C@H](CCC(N)=O)NC(=O)CCCCNC(=O)[C@H](CCCNC(=N)N)NC(=O)Cc1ccc([Si](F)(C(C)(C)C)C(C)(C)C)cc1)C(C)C)C(N)=O`, the IC50 in series [2] turned out to be 22.9 nM. For `CC(C)(C)[Si]([18F])(CCn1cc(CC(N)C(=O)O)nn1)C(C)(C)C` (configuration not stated), the half-life (usually the time in which the quantity being followed falls by half) in series [3] was 960 min. The Drug metabolism result in series [4] and in series [5] was “Active” each time. Consider `CC(C)C[C@H](NC(=O)C[C@H](O)[C@H](CC(C)C)NC(=O)[C@H](Cc1cnc[nH]1)NC(=O)CN(C)C(=O)[C@@H](NC(=O)[C@H](C)NC(=O)[C@H](Cc1c[nH]c2ccccc12)NC(=O)[C@H](CCC(N)=O)NC(=O)CCCCNC(=O)[C@H](CCCNC(=N)N)NC(=O)C(O)C(O)C(=O)NCCc1ccc([Si](F)(C(C)(C)C)C(C)(C)C)cc1)C(C)C)C(N)=O` (some centres not stated), for which, in series [1], the IC50 worked out at 23 nM. As for `CC(C)(C)[Si](F)(CCO)C(C)(C)C`, the half-life in series [3] was 480 min.
